# Key:
# [1] = biological target: T1, recombinant human plasminogen activator inhibitor-1 (PAI-1) (Homo sapiens, UniProt P05121); test: Primary Screen for the PAI-1 Inhibition (residual tPA activity, chromogenic substrate Spectrozyme-tPA); type: biochemical; settings: 140 nM PAI-1, 70 nM tPA, pH 6.6; for inhibition at 25 µM: 25 μM test compound; for inhibition at 100 µM: 100 μM test compound
# T1 construct: purchased Molecular Innovations, Royal Oak, Mich
# Method: (§1) Test compounds are dissolved in DMSO at a final concentration of 10 mM, then diluted 101× in physiologic buffer. The inhibitory assay is initiated by the addition of the test compound (1-100 μM final concentration, maximum DMSO concentration of 0.2%) in a pH 6.6 buffer containing 140 nM recombinant human plasminogen activator inhibitor-1 (PAI-1; Molecular Innovations, Royal Oak, Mich.). Following a 1 hour incubation at room temperature, 70 nM of recombinant human tissue plasminogen activator (tPA) is added, and the combination of the test compound, PAI-1 and tPA is incubated for an additional 30 minutes. Following the second incubation, Spectrozyme-tPA (American Diagnostica, Greenwich, Conn.), a chromogenic substrate for tPA, is added and absorbance read at 405 nm at 0 and 60 minutes. Relative PAI-1 inhibition is equal to the residual tPA activity in the presence of the test compound and PAI-1. Control treatments include the complete inhibition of tPA by PAI-1 at the molar ratio employed (2:1), and the absence of any effect of the test compound on tPA alone.
# [2] = biological target: T1, recombinant human plasminogen activator inhibitor-1 (PAI-1); test: Kinetic IC50: modification of the Primary Screen for the PAI-1 Inhibition; type: biochemical
# Method: as §1
# T1 sequence (P05121 24-402): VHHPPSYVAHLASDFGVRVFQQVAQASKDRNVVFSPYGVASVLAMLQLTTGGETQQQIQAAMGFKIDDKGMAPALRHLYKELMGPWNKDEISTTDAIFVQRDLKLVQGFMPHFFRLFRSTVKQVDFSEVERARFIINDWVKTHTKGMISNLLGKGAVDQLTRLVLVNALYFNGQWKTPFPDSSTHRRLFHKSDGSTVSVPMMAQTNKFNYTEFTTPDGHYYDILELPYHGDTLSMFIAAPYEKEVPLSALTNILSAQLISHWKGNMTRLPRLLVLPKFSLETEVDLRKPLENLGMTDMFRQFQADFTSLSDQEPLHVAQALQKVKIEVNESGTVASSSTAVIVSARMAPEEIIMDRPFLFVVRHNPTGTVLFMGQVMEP
SMILES,inhibition at 25 µM [1] [%],inhibition at 100 µM [1] [%],melting point [°C],IC50 [2] [µM]
"CCCc1c(C(=O)NCc2ccc(-c3ccc(OCC(=O)O)cc3)cc2)cnn1-c1ccccc1 [Compound 2, ({4′-[({[1-phenyl-5-propyl-1H-pyrazol-4-yl]carbonyl}amino)methyl][1,1′-biphenyl]-4-yl}oxy)acetic acid]",2,66,190 to 192,–
"CCCCc1oc2ccccc2c1C(=O)NCc1ccc(-c2ccc(OCC(=O)O)c(Br)c2)cc1 [Compound 4, {[3-bromo-4′-({[(2-butyl-1-benzofuran-3-yl)carbonyl]amino}methyl)[1,1′-biphenyl]-4-yl]oxy}acetic acid]",44,82,175 to 190,–
"CCCCc1oc2ccccc2c1C(=O)Nc1ccc(-c2ccc(OCC(=O)O)cc2)cc1 [Compound 13, [(4′-{[(2-butyl-1-benzofuran-3-yl)carbonyl]amino}[1,1′-biphenyl]-4-yl)oxy]acetic acid]",25,85,225 to 227,–
"CCCCc1oc2ccccc2c1C(=O)Nc1ccc(-c2ccc(OCc3nnn[nH]3)cc2)cc1 [Compound 14, 2-Butyl-N-[4′-(1H-tetraazol-5-ylmethoxy)[1,1′-biphenyl]-4-yl]-1-benzofuran-3-carboxamide]",29,62,210 to 212,–
"O=C(O)COc1ccc(-c2ccc(NC(=O)c3cc(-c4ccc(-c5ccccc5)cc4)oc3C(F)(F)F)cc2)cc1 [Compound 36, [(4′-{[5-(1,1′-biphenyl-4-yl)-2-(trifluoromethyl)-3-furoyl]amino}-1,1′-biphenyl-4-yl)oxy]acetic acid]",29,75,–,18.3
"O=C(Nc1ccc(-c2cccc(OC(Cc3ccccc3)C(=O)O)c2)cc1)c1ccc(Oc2ccccc2)cc1 (stereo not drawn) [Compound 37, 2-({4′-[(4-phenoxybenzoyl)amino]-1,1′-biphenyl-3-yl}oxy)-3-phenylpropanoic acid]",13,65,–,18.1
"O=C(Nc1ccc(-c2cccc(OC(Cc3ccccc3)C(=O)O)c2)cc1)c1ccc(-c2ccc(Cl)cc2)s1 (stereo not drawn) [Compound 38, 2-{[4′-({[5-(4-chlorophenyl)thien-2-yl]carbonyl}amino)-1,1′-biphenyl-3-yl]oxy}-3-phenylpropanoic acid]",5,52,–,38.7
"O=C(O)C(Cc1ccccc1)Oc1cccc(-c2ccc(NC(=O)C3(c4ccc(Cl)cc4)CCC3)cc2)c1 (stereo not drawn) [Compound 39, 2-{[4′-({[1-(4-chlorophenyl)cyclobutyl]carbonyl}amino)-1,1′-biphenyl-3-yl]oxy}-3-phenylpropanoic acid]",40,81,–,12
"O=C(Nc1ccc(-c2cccc(OC(Cc3ccccc3)C(=O)O)c2)cc1)c1cc(-c2ccccc2Cl)oc1C(F)(F)F (stereo not drawn) [Compound 40, 2-[(4′-{[5-(2-chlorophenyl)-2-(trifluoromethyl)-3-furoyl]amino}-1,1′-biphenyl-3-yl)oxy]-3-phenylpropanoic acid]",31,90,–,10.2
"CCCCc1oc2ccccc2c1C(=O)Nc1ccc(-c2cccc(OC(Cc3ccccc3)C(=O)O)c2)cc1 (stereo not drawn) [Compound 41, 2-[(4′-{[(2-butyl-1-benzofuran-3-yl)carbonyl]amino}-1,1′-biphenyl-3-yl)oxy]-3-phenylpropanoic acid]",30,95,–,9.1
"O=C(Nc1ccc(-c2cccc(OC(Cc3ccccc3)C(=O)O)c2)cc1)c1cc(-c2ccc(-c3ccccc3)cc2)oc1C(F)(F)F (stereo not drawn) [Compound 42, 2-[(4′-{[5-(1,1′-biphenyl-4-yl)-2-(trifluoromethyl)-3-furoyl]amino}-1,1′-biphenyl-3-yl)oxy]-3-phenylpropanoic acid]",35,57,–,18.6
"O=C(Nc1ccc(-c2cccc(OC(Cc3ccccc3)C(=O)O)c2)cc1)c1cc(-c2ccc(C(F)(F)F)cc2)oc1C(F)(F)F (stereo not drawn) [Compound 43, 3-phenyl-2-{[4′-({2-(trifluoromethyl)-5-[4-(trifluoromethyl)phenyl]-3-furoyl}amino)-1,1′-biphenyl-3-yl]oxy}propanoic acid]",26,88,–,12
"Cc1nn(Cc2ccc(C(=O)Nc3ccc(-c4cccc(OC(Cc5ccccc5)C(=O)O)c4)cc3)o2)c(C)c1Br (stereo not drawn) [Compound 44, 2-{[4′-({5-[(4-bromo-3,5-dimethyl-1H-pyrazol-1-yl)methyl]-2-furoyl}amino)-1,1′-biphenyl-3-yl]oxy}-3-phenylpropanoic acid]",17,52,–,11.8
"O=C(Nc1ccc(-c2ccc(OC(Cc3ccccc3)C(=O)O)cc2)cc1)c1ccc(Oc2ccccc2)cc1 (stereo not drawn) [Compound 45, 2-({4′-[(4-phenoxybenzoyl)amino]-1,1′-biphenyl-4-yl}oxy)-3-phenylpropanoic acid]",34,61,–,11.5
"O=C(Nc1ccc(-c2ccc(OC(Cc3ccccc3)C(=O)O)cc2)cc1)c1ccc(-c2ccc(Cl)cc2)s1 (stereo not drawn) [Compound 46, 2-{[4′-({[5-(4-chlorophenyl)thien-2-yl]carbonyl}amino)-1,1′-biphenyl-4-yl]oxy}-3-phenylpropanoic acid]",36,84,–,5.4
"O=C(O)C(Cc1ccccc1)Oc1ccc(-c2ccc(NC(=O)C3(c4ccc(Cl)cc4)CCC3)cc2)cc1 (stereo not drawn) [Compound 47, 2-{[4′-({[1-(4-chlorophenyl)cyclobutyl]carbonyl}amino)-1,1′-biphenyl-4-yl]oxy}-3-phenylpropanoic acid]",14,83,–,18.1
"O=C(Nc1ccc(-c2ccc(OC(Cc3ccccc3)C(=O)O)cc2)cc1)c1cc(-c2ccccc2Cl)oc1C(F)(F)F (stereo not drawn) [Compound 48, 2-[(4′-{[5-(2-chlorophenyl)-2-(trifluoromethyl)-3-furoyl]amino}-1,1′-biphenyl-4-yl)oxy]-3-phenylpropanoic acid]",7,78,–,23.2
"CCCCc1oc2ccccc2c1C(=O)Nc1ccc(-c2ccc(OC(Cc3ccccc3)C(=O)O)cc2)cc1 (stereo not drawn) [Compound 49, 2-[(4′-{[(2-butyl-1-benzofuran-3-yl)carbonyl]amino}-1,1′-biphenyl-4-yl)oxy]-3-phenylpropanoic acid]",25,90,–,8.71
"O=C(Nc1ccc(-c2ccc(OC(Cc3ccccc3)C(=O)O)cc2)cc1)c1cc(-c2ccc(C(F)(F)F)cc2)oc1C(F)(F)F (stereo not drawn) [Compound 50, 3-phenyl-2-{[4′-({2-(trifluoromethyl)-5-[4-(trifluoromethyl)phenyl]-3-furoyl}amino)-1,1′-biphenyl-4-yl]oxy}propanoic acid]",27,95,–,18.7
